For the first assay, the target named is T1, Casein Kinase Iε (Homo sapiens, UniProt P49674).
T1 construct: made in house
T1 sequence (P49674 whole entry): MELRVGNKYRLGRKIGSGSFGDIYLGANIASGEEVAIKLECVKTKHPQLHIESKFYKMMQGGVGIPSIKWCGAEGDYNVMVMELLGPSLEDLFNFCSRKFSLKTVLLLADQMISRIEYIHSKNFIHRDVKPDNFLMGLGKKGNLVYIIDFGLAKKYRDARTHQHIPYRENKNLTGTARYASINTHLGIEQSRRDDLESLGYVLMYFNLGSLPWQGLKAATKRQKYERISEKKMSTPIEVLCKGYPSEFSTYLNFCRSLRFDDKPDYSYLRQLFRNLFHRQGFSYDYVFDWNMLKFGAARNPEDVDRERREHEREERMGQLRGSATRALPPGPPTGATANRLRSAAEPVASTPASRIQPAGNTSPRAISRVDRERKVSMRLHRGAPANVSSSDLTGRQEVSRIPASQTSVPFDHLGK
The assay is described as follows: Casein Kinase Epsilon 33P-ATP Filter Plate Assay. Type of assay: biochemical.
Conditions: not given
The source says: Casein Kinase Epsilon ^33P-ATP Filter Plate Assay for Screening CKIε Inhibitors
Purpose: This assay measures the ability of compounds to inhibit the phosphorylation of the substrate casein by the enzyme casein kinase 1ε using an in vitro ^33P-ATP filtration assay. […] Materials:
Equipment: • Beckman Biomek 2000 Liquid Handling Robot • Beckman Multimek 96 Automated 96 Channel Pipettor • Millipore Vacuum Manifold Basic Kit # MAVM0960R • Titertek Multidrop Liquid Dispenser • Packard TopCount NXT Liquid Scintillation Counter
Enzyme: • Casein Kinase 1ε final concentration 0.58 mg/ml obtained from fermentation and purification processes as are well known to one skilled in the art. The above are stored as 100 μL aliquots at minus 80° C.
Compounds: • Supply compounds for testing as frozen 10 mM compound stock dissolved in 100% DMSO. Assay Conditions:
Final total assay volume per well is equal to 50 μL that one prepares as follows: • 5 μL of diluted compound stock (10, 1, 0.1, 0.01 or 0.001 μM), • 5 μL of dephosphorylated casein final concentration 0.2 μg/μL, • 20 μL of CK1ε final concentration 3 ng/μL, and • 20 μL of γ-^33P-ATP final concentration 0.02 μCi/μL mixed with cold ATP (10 μM final). Methodology: • 1. Prepare 500 mL of fresh assay buffer: 50 mM Tris pH 7.5, 10 mM MgCl2, 2 mM DTT and 1 mM EGTA • 2. Obtain compounds to be evaluated as 10 μL of 10 mM stock dissolved in 100% DMSO. Use a Biomek 2000 liquid handling robot, make serial dilutions to yield 10, 1, 0.1, 0.01 and 0.001 μM final compound dilutions added as 5 μL additions to Falcon U bottom plates. […] A routine screening assay will consist of 32 compounds, which equals 4 assay plates. • 3. Assay plate maps are set up according to the following pattern CK1ePlateMap.xls
• 4. Add 5 μL of compound as indicated, then add 5 μL of dephosphorylated casein (dissolved in distilled H20)(0.2 μg/μL) and 20 μL CK1ε (3 ng/μL) to the appropriate wells. • 5. Finally add 20 μL γ-^33P-ATP (0.02 μCi/μL)/10 μM cold ATP (equals approximately 2×10^6 CPM per well). • 6. Vortes the Falcon U-Bottom assay plate containing the above 50 μL reaction volume and then incubate at room temperature for 2 hours. • 7. At the end of 2 hours, stop the reaction by the addition of 65 μL of ice cold 2 mM cold ATP (made up in assay buffer) to the assay plates using a Beckman Multimek. • 8. At the same time add 25 μL 100% ice cold TCA made up in distilled H20 to a matching number of Millipore MAPH filter plates. • 9. Using a handheld 8-channel pipettor, transfer 100 μL of the reaction mixture from the Falcon U-Bottom Plate to the Millipore MAPH filter plates presoaked with TCA. • 10. Mix the Millipore MAPH filter plates gently and allow to sit at room temperature for at least 30 minutes to precipitate the proteins. • 11. After 30 minutes, place the filter plates on a Millipore vacuum manifold and filter at no more than 8 mm Hg as the MAPH filters tend to “air lock” at higher vacuum settings. • 12. Wash the filter plates sequentially and filter with 2×150 μL 20% TCA, 2×150 μL 10% TCA and 2×150 μL 5% TCA (total of 6 washes per plate/900 μL per well). • 13. Allow the plates to dry overnight at room temperature. The next day add 40 μL Packard Microscint-20 Scintillation Fluid per well using a Titertek Multidrop dispenser; seal the plates and count for 2 minutes/well in a Packard Topcount NXT Scintillation Counter (to provide CPM values/well). Calculation: • 1. Import Counts Per Minute (CPM) data into a proprietary data calculation and archiving database (Activity Base by IDBS version 5.0). • 2. Column 1 for each plate reflects total phosphorylation activity of the enzyme in the absence of any inhibiting compound and thus represents 100%. Column 12 reflects any nonspecific phosphorylation/retained radioactivity activity in the absence of inhibiting compound and enzyme.
Turning to `NC(=O)c1[nH]c2sccc2c1Sc1ccccc1` [IIb, 4-(phenylsulfanyl)-6H-thieno[2,3-b]pyrrole-5-carboxylic acid amide], the Ki came out at 811 nM.

`Cc1nc2c(Sc3cccc(F)c3)c(C(N)=O)[nH]c2s1` [IIn, 6-(3-Fluorophenyl-sulfanyl)-2-methyl-4H-pyrrolo[3,2-d]thiazole-5-carboxylic acid amide]: the affinity corresponds to a Ki of 15.9 nM.

The compound `NC(=O)c1[nH]c2ccsc2c1Sc1ccccc1N` [Id, 6-(2-Aminophenyl-sulfanyl)-4H-thieno[3,2-b]pyrrole-5-carboxylic acid amide] gave a Ki of 110 nM.

For `NC(=O)c1[nH]c2sccc2c1Sc1cccc(Br)c1` [IIg, 4-(3-Bromophenyl-sulfanyl)-6H-thieno[2,3-b]pyrrole-5-carboxylic acid amide], the inhibition constant Ki was found to be 30.6 nM.

`COc1cccc(Sc2c(C(N)=O)[nH]c3scnc23)c1` [IIt, 6-(3-Methoxyphenyl-sulfanyl)-4H-pyrrolo[3,2-d]thiazole-5-carboxylic acid amide]: the affinity, expressed as Ki, was 22 nM.

Turning to `NC(=O)c1[nH]c2scnc2c1Sc1ccccc1` [IIs, 6-Phenylsulfanyl-4H-pyrrolo[3,2-d]thiazole-5-carboxylic acid amide], the affinity, expressed as Ki, was 47 nM.

As for `Cc1nc2c(Sc3cccc(Cl)c3)c(C(N)=O)[nH]c2s1` [IIo, 6-(3-Chlorophenyl-sulfanyl)-2-methyl-4H-pyrrolo[3,2-d]thiazole-5-carboxylic acid amide], the Ki was 9.6 nM.

Another assay concerns Mper1-luc Rat-1 fibroblasts (P2C4). The assay can be described thus: Cellular Circadian Assay (Mper1-luc reporter period lengthening). The following applies: effective concentration that induces a 1 hour lengthening of circadian period. Type of assay: cell-based. The text has this:
The assay consists of Rat-1 fibroblasts stably expressing a Mper1-luc construct, thus enabling the determination of the rhythmic activation of the Mper1 promoter in living cells by repeatedly estimating luciferase activity by monitoring light-output over several days. The repeated measure format of the assay permits accurate and reproducible assessment of the concentration-dependent effects of CKIε inhibitors on circadian rhythm and provides the nexus for relating CKIε inhibition to circadian period alteration.
Cellular Circadian Assay Experimental Procedures
Stable transfection: Co-transfect Rat-1 fibroblast cultures at 30-50% confluence with vectors containing the Zeocin resistance selectable marker for stable transfection and an mPer-1 promoter-driven luciferase reporter gene. After 24-48 hours, split the cultures onto 96 well plates and maintain in growth media supplemented with 50-100 μg/mL Zeocin (Invitrogen #45-0430) for 10-14 days. Assess Zeocin-resistant stable transfectants for reporter expression by supplementing growth media with 100 μM luciferin (Promega #E1603) and assaying luciferase activity on a TopCount scintillation counter (Packard Model #C384V00). […] Select Mper1-luc Rat-1 fibroblasts clone P2C4 for compound testing. […] After synchronization, rinse cultures with 100 μL EMEM (Cellgro #10-010-CV) for 10 minutes at room temperature. […] Add compounds to be tested for circadian effects to CO2-independent media in 0.3% DMSO (final concentration). […] Estimate in vivo luciferase activity by measuring relative light output on a TopCount scintillation counter (Packard Model #C384V00). Transfer plates from incubator to reader using an ORCA robotic arm (Beckman Instruments) and SAMI-NT automated scheduling software (Version 3.3; SAGIAN/Beckman Instruments). Data Analysis: Use Microsoft Excel and XLfit (Version 2.0.9; IDBS) to import, manipulate and graph data. Perform period analysis either by determining the interval between relative light output minima over several days or by Fourier Transform. […] Analyze the data by fitting a hyperbolic curve to the data expressed as period change (y-axis) versus the concentration of test compound (x-axis) in XLfit and interpolate the EC[…]t+1h from this curve.
Consider `NC(=O)c1[nH]c2sccc2c1Sc1ccccc1` [IIb, 4-(phenylsulfanyl)-6H-thieno[2,3-b]pyrrole-5-carboxylic acid amide], for which the “Cell Assay ECΔτ1h” value turned out to be 0.874 µM.

Consider `Cc1nc2c(Sc3cccc(F)c3)c(C(N)=O)[nH]c2s1` [IIn, 6-(3-Fluorophenyl-sulfanyl)-2-methyl-4H-pyrrolo[3,2-d]thiazole-5-carboxylic acid amide], for which the “Cell Assay ECΔτ1h” value was 0.998 µM.

Take `NC(=O)c1[nH]c2ccsc2c1Sc1ccccc1N` [Id, 6-(2-Aminophenyl-sulfanyl)-4H-thieno[3,2-b]pyrrole-5-carboxylic acid amide]: the “Cell Assay ECΔτ1h” value was greater than 30 µM.

For the compound `NC(=O)c1[nH]c2sccc2c1Sc1cccc(Br)c1` [IIg, 4-(3-Bromophenyl-sulfanyl)-6H-thieno[2,3-b]pyrrole-5-carboxylic acid amide], the “Cell Assay ECΔτ1h” value is 2.492 µM.

Consider `COc1cccc(Sc2c(C(N)=O)[nH]c3scnc23)c1` [IIt, 6-(3-Methoxyphenyl-sulfanyl)-4H-pyrrolo[3,2-d]thiazole-5-carboxylic acid amide], for which the “Cell Assay ECΔτ1h” value came to 1.974 µM.

Take `NC(=O)c1[nH]c2scnc2c1Sc1ccccc1` [IIs, 6-Phenylsulfanyl-4H-pyrrolo[3,2-d]thiazole-5-carboxylic acid amide]: the “Cell Assay ECΔτ1h” value amounted to 1.155 µM.

Consider `Cc1nc2c(Sc3cccc(Cl)c3)c(C(N)=O)[nH]c2s1` [IIo, 6-(3-Chlorophenyl-sulfanyl)-2-methyl-4H-pyrrolo[3,2-d]thiazole-5-carboxylic acid amide], for which the “Cell Assay ECΔτ1h” value amounted to 0.662 µM.

In general, Ki refers to a measure of affinity in units of concentration, obtained from inhibition or displacement. The low end stands for a stronger hold on the target, the high end for a looser hold on the target.

Source of the values: patent US7652046B2, “Substituted thienopyrrole carboxylic acid amides, pyrrolothiazole carboxylic acid amides, and related analogs as inhibitors of casein kinase I” (Aventis Pharmaceuticals Inc., priority 2004, dated 2010).
